From paper PMC3153478, “Structural Basis for Species Specific Inhibition of 17β-Hydroxysteroid Dehydrogenase Type 1 (17β-HSD1): Computational Study and Biological Validation” (PLoS ONE, 2011)
pIC50: −log10 of the molar value. Read-outs that look alike come from different tables or passages of the source.

What was measured:
[1] = biological target: marmoset 17β-HSD2 (Callithrix jacchus, UniProt U3BEV1); assay: Inhibition of marmoset 17β-HSD2 (placental microsomes, tritiated E2, HPLC); assay type: biochemical, marmoset monkey (callithrix jacchus); details: Logit transformed values calculated from % inhibition at 50 nM inhibitor concentration (trend for <30% or >70%), placental microsomal fraction, substrate E2 500 nM, NAD+ 1500 µM; for pIC50: read-out: Marmoset IC50 17ß-HSD2
Sequence of marmoset 17β-HSD2 (U3BEV1 entry or part of it): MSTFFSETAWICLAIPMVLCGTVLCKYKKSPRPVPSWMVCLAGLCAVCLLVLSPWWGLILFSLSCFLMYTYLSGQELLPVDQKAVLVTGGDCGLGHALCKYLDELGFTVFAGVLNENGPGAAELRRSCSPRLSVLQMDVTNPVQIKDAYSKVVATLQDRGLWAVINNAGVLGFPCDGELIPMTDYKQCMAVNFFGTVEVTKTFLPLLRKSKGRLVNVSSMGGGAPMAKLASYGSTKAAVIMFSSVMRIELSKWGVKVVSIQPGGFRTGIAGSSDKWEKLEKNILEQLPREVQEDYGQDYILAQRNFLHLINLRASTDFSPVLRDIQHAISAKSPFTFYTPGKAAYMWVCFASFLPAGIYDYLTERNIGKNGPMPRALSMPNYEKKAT
Method: (§1) Marmoset placental tissue was used as enzyme source and the proteins were partially purified following a described procedure. Tritiated E1 was incubated with 17β-HSD1, cofactor and inhibitor. The separation of substrate and product was performed by HPLC. In an assay similar to the 17β-HSD1 test, marmoset placental microsomes containing 17β-HSD2 were incubated with tritiated E2 in the presence of NAD^+ and inhibitor. Labelled product was quantified after HPLC separation.
(§2) [2, 4, 6, 7-^3H]-E1 and [2, 4, 6, 7-^3H]-E2 were bought from Perkin Elmer, Boston. Quickszint Flow 302 scintillator fluid was bought from Zinsser Analytic, Frankfurt. Marmoset 17β-HSD1 and 17β-HSD2 were obtained from marmoset placenta according to previously described procedures. Fresh marmoset placenta was homogenized and cytosolic and microsomal fractions were separated by centrifugation. For the partial purification of 17β-HSD1, the cytosolic fraction was precipitated with ammonium sulfate. 17β-HSD2 was obtained from the microsomal fraction.
The 17β-HSD2 inhibition assay was performed similarly to the 17β-HSD1 procedure. The microsomal fraction was incubated with NAD^+ [1500 µM], test compound and a mixture of unlabelled- and [2, 4, 6, 7-^3H]-E2 (final concentration: 500 nM, 0.11 µCi) for 20 min at 37°C. Further treatment of the samples and HPLC separation was carried out as mentioned above. The conversion rate was calculated after analysis of the resulting chromatograms according to the following equation: [drawing 2] .

[2] = tested on: human 17β-HSD2; set-up: method as in earlier work; details: Human placental, microsomal fraction, substrate E2, 500 nM, cofactor NAD+, 1500 µM; ref literature (references indicated with the structural formulas in Fig. 3); read-out: Human IC50 17ß-HSD2; cited from earlier work
[3] = tested on: human 17β-HSD1; set-up: method as in earlier work; details: Human placental, cytosolic fraction, substrate E1, 500 nM, cofactor NADH, 500 µM; ref literature (references indicated with the structural formulas in Fig. 3); read-out: Human IC50 17ß-HSD1; cited from earlier work
[4] = biological target: T1, marmoset 17β-HSD1 (Callithrix jacchus, UniProt Q9GME2); assay: Inhibition of marmoset 17β-HSD1 (placental cytosolic fraction, tritiated E1, HPLC); assay type: biochemical, marmoset monkey (callithrix jacchus); details: for pIC50: read-out: Marmoset IC50 17ß-HSD1
T1 construct: For the partial purification of 17β-HSD1, the cytosolic fraction was precipitated with ammonium sulfate; from tissue; host or cells: marmoset placenta, cytosolic fraction, ammonium sulfate precipitate
T1 sequence (Q9GME2 1-314): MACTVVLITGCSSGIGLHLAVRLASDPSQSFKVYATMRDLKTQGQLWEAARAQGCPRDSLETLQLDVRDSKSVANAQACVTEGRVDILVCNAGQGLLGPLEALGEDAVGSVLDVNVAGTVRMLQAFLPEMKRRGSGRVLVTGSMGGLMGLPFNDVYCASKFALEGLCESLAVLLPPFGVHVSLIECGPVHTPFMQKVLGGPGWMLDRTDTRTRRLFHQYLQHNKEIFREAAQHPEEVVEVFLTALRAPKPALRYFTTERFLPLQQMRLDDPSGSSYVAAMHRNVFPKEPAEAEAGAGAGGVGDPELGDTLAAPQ
Method: as §1, §2
Inhibitory activities were evaluated by an established method with minor modifications. Briefly, the enzyme preparation was incubated with NADH [500 µM] in the presence of potential inhibitors at 37°C in a phosphate buffer (50 mM) supplemented with 20% of glycerol and EDTA (1 mM). Inhibitor stock solutions were prepared in DMSO. The final concentration of DMSO was adjusted to 1% in all samples. The enzymatic reaction was started by addition of a mixture of unlabelled- and [2, 4, 6, 7-^3H]-E1 (final concentration: 500 nM, 0.15 µCi). After 10 min, the reaction was stopped by the addition of HgCl2 (10 mM) and the mixture was extracted with diethylether. After evaporation, the steroids were dissolved in acetonitrile. E1 and E2 were separated using acetonitrile/water (45∶55) as mobile phase in a C18 reverse phase chromatography column (Nucleodur C18 Gravity, 3 µm, Macherey-Nagel, Düren) connected to an HPLC-system (Agilent 1200 Series, Agilent Technologies, Waldbronn). Detection and quantification of the steroids were performed using a radioflow detector (Agilent 1200 Series, Agilent Technologies, Waldbronn). The conversion rate was calculated after analysis of the resulting chromatograms according to the following equation: [drawing 1] . Each value was calculated from at least three independent experiments.

[5] = Logit transformed values calculated from % inhibition at 50 nM inhibitor concentration (trend for <30% or >70%), placental cytosolic fraction, substrate E1 500 nM, NADH 500 µM
[6] = Logit transformed values calculated from % inhibition, inhibitor concentration: 5 nM, placental cytosolic fraction, substrate E1 500 nM, NADH 500 µM

Structure (SMILES)	pIC50 [1]	pIC50 [4, 5]	Inhibitory potency toward marmoset 17β-HSD1 compared to the human enzyme ([4]; comparison in words, marmoset vs human 17β-HSD1)	Marmoset IC50 17ß-HSD2 [1]	pIC50 [4]	pIC50 [4, 6]	Marmoset IC50 17ß-HSD1 [4, 5]	pIC50 [2]	pIC50 [3]
CC(=O)Nc1cccc(-c2c(O)ccc3cc(-c4cccc(O)c4)ccc23)c1 [Compound 20]	–	< 7.30	–	n.i.	–	–	–	5.91	7.08
Cc1cc(-c2ccc(-c3cccc(O)c3)s2)ccc1O [Compound 4]	< 7.30	> 7.30	–	–	–	–	–	5.71	7.34
CS(=O)(=O)Nc1cccc(-c2c(O)ccc3cc(-c4cccc(O)c4)ccc23)c1 [Compound 19]	< 7.30	< 7.30	–	–	–	–	–	6.39	7.82
Oc1cccc(-c2ccc3cc(O)ccc3c2)c1 [Compound 14]	–	–	–	–	< 7.30	–	–	5.25	6.94
Oc1cccc(-c2ccc(-c3ccc(O)c(F)c3)s2)c1 [Compound 1]	< 7.30	–	–	–	–	> 8.30	–	6.03	8.10
Cc1cc(-c2cnc(-c3cccc(O)c3)s2)ccc1O [Compound 5]	< 7.30	> 7.30	–	–	–	–	–	5.69	6.84
Oc1ccc(-c2cnc(-c3cccc(O)c3)s2)cc1 [Compound 2]	< 7.30	6.99	–	–	–	–	–	5.40	7.30
Oc1ccc(-c2ccc(-c3cc(O)cc(F)c3)s2)cc1 [Compound 6]	7.07	–	–	–	–	> 8.30	–	6.33	7.38

Second part, led by results:

pIC50 [1]	pIC50 [4, 5]	Inhibitory potency toward marmoset 17β-HSD1 compared to the human enzyme ([4]; comparison in words, marmoset vs human 17β-HSD1)	Marmoset IC50 17ß-HSD2 [1]	pIC50 [4]	pIC50 [4, 6]	Marmoset IC50 17ß-HSD1 [4, 5]	Structure (SMILES)	pIC50 [2]	pIC50 [3]
< 7.30	7.49	–	–	–	–	–	Oc1cccc(-c2ccc3c(-c4cccc(O)c4)c(O)ccc3c2)c1 [Compound 15]	6.02	7.44
7.37	> 7.30	Comparable inhibition data	–	–	–	–	O=C(c1cccc(O)c1)c1ccc(-c2ccc(O)cc2)s1 [Compound 12]	6.32	7.48
< 7.30	7.51	–	–	–	–	–	Oc1ccc(-c2ccc(-c3cccc(O)c3)s2)cc1 [Compound 3]	5.71	7.16
< 7.30	–	–	–	–	–	n.i.	Nc1cccc(-c2c(O)ccc3cc(-c4cccc(O)c4)ccc23)c1 [Compound 18]	–	7.28
< 7.30	< 7.30	–	–	–	–	–	Oc1cccc(-c2ccc3c(-c4cccnc4)c(O)ccc3c2)c1 [Compound 16]	5.94	7.59
< 7.30	7.28	–	–	–	–	–	Oc1cccc(-c2ccc3c(-c4ccccc4)c(O)ccc3c2)c1 [Compound 17]	6.27	7.70
7.37	–	–	–	–	> 8.30	–	Oc1cc(F)cc(-c2ccc(-c3ccc(O)c(F)c3)s2)c1 [Compound 7]	6.66	7.77
